For 39 molecules, IC50 results are on record in US20240199634A1, “CYCLIC COMPOUNDS AND METHODS OF USING SAME” (SCHRÖDINGER, INC., priority 2021, published 2024).

For orientation: IC50 means the concentration that inhibits the measured activity by half.

Assay [1] deals with T1, Full length human CDC7 protein co-expressed with DBF4 (Homo sapiens, UniProt O00311).
T1 construct: Full length human CDC7 protein co-expressed with DBF4; purchased SignalChem (China)
The experiment in a line: CDC7 Kinase Biochemical Assay (ADP-Glo, PDKtide substrate). The conditions noted are these: 0.1 nM CDC7/DBF4, 1 μM ATP, 10 μM PDKtide, 4 h reaction. How it is done: CDC7 Kinase Biochemical Assay PROTOCOL:
Full length human CDC7 protein co-expressed with DBF4 was purchased from SignalChem (China). CDC7 kinase activity was determined with PDKtide (SignalChem) as a substrate and by measuring ADP production using the ADP-Glo™ Kinase Assay kit (Promega) following the manufacturer's instructions. The kinase reaction was performed using the following conditions: Buffer: 40 mM Tris pH 7.5, 20 mM MgCl2, 0.1 mg/mL BSA and 50 μM DTT. Final reaction mix contained 0.1 nM CDC7/DBF4, 1 μM ATP and 10 μM PDKtide. The kinase reaction time was 4 h. The ADP-Glo signal was measured using an EnVision plate reader (PerkinELmer).
Percent inhibition of CDC7 kinase activity was calculated based on the following formula:
[formula] • SSample: the signal of compounds • SHigh Ctrl: the signal of high control (DMSO) • SLow Ctrl: the signal of low control (positive control CDC7 inhibitor)

Assay [2] deals with phosphorylation of MCM2 S53 in colo205 cells. The experiment in a line: Phosphorylated MCM2 MSD Electrochemiluminescence Assay. The conditions noted are these: Homo sapiens, COLO 205, 20 h incubation, read-out: pMCM2-S53 MSD Colo205 IC50. Format: cell-based. How it is done: Phosphorylated MCM2 MSD Electrochemiluminescence Assay
The effect of CDC7 inhibitors on cellular phosphorylation of the CDC7 substrate MCM2 was determined using the following protocol:
A total of 40,000 colo205 cells in 100 μL culture medium (1640 medium+10% Fetal bovine serum+1% Penicillin-Streptomycin) were plated in 96-well cell culture plates and allowed to attach for 6 hours. 3-fold serial dilutions of test compounds were prepared in completed PBS at 25× final concentration and 4 μL of each were added to the cells and incubated for 20 hours at 37° C., 5% CO2. Each concentration was tested in duplicate. After the 20 h incubation, cells were washed with 150 μL PBS and lysed with 40 μL MSD lysis buffer (obtained from Meso Scale Diagnostics) supplied with 1× complete ULTRA cocktail inhibitor (obtained from Roche). To detect phosphorylation of MCM2 S53, 30 μL of capture antibody solution (obtained from Abnova, catalog number H00004171-M01, 1:500) was added to each well of MULTI-ARRAY 96-well High Bind Plate, and incubated overnight. The antibody solution was removed, wells blocked with BSA solution and plates washed, followed by addition of 30 μl of cell lysate per well. After 2 h incubation, plates were washed. 30 μL of 1× detection antibody solution (obtained from Abcam, catalog number ab109133, 1:1000) was then added to each well and incubate for 1 hour. Plates were washed and 30 μL of 1× secondary antibody solution (obtained from MSD, catalog number R32AB-1, 1:5000) was added to each well and incubate for 1 hour. Plates were washed and 150 μL of 1× Read Buffer T was added to each well of the MSD plate. The electrochemiluminescence signal was measured on a MESO SECTOR 5600 plate reader. The percentage of remaining phosphorylated MCM2 signal was calculated following the equation below.
[formula] • HC (high control): Cells treated with DMSO • Cpds: Cells treated with test compounds • LC (low control): Cells treated with positive control CDC7 inhibitor

T1 sequence (O00311 whole entry): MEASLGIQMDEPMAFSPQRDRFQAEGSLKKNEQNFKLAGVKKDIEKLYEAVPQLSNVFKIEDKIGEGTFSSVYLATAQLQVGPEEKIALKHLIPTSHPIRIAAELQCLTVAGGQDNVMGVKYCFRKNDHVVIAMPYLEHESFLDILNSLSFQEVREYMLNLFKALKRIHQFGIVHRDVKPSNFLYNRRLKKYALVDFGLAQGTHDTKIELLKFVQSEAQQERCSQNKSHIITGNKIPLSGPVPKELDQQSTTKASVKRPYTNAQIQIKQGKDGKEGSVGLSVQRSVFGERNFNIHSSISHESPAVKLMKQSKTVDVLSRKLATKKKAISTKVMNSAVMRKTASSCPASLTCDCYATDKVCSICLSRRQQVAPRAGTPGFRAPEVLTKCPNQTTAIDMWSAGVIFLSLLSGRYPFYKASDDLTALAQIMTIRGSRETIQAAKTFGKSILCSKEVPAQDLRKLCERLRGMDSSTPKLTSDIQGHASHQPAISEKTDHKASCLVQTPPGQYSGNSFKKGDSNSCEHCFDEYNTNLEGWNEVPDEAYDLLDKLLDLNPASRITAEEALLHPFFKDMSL
T1 sequence (Q9UBU7 whole entry partner): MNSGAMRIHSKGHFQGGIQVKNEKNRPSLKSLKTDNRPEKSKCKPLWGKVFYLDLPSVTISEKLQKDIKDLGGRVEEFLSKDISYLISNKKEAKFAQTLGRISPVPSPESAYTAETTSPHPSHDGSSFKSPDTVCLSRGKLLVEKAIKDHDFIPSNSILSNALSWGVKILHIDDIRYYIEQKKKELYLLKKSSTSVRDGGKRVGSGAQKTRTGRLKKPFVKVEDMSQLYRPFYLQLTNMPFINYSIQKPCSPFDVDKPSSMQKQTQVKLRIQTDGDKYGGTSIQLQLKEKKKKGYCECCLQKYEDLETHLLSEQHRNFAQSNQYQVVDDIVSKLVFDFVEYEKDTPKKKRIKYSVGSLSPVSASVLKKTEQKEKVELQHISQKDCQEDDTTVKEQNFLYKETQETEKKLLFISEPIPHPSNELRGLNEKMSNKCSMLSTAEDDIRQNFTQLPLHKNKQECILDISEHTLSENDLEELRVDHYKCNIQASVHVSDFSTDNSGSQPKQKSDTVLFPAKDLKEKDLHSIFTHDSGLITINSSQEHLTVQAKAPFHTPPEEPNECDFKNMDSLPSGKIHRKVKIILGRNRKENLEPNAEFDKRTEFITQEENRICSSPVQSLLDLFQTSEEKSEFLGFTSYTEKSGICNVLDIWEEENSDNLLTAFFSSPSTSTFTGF

Turning to `CC(C)C1(O)COCc2c1[nH]c(=O)c1sc(-c3c[nH]nc3F)cc21` (single isomer, unassigned) [Compound 27], the IC50 in assay [1] was no more than 1 nM; in assay [2] it was no more than 5 nM.

Regarding `CC(C)(C)C1(O)CNCc2c1[nH]c(=O)c1sc(-c3cn[nH]c3)cc21` (centres unmarked) [Compound 93, 4-(tert-butyl)-4-hydroxy-8-(1H-pyrazol-4-yl)-1,3,4,5-tetrahydrothieno[2,3-c][1,6]naphthyridin-6(2H)-one], the values for the IC50 in assay [1] and in assay [2] were no more than 1 nM and 20 to 50 nM, respectively.

For the molecule `Cn1nccc1-c1cc2c3c([nH]c(=O)c2s1)C(O)(C(C)(C)C)COC3` (single isomer, unassigned) [Compound 89], the IC50 in assay [1] is no more than 1 nM; in assay [2], 5 to 20 nM.

For `O=c1[nH]c2c(c3cc(-c4cn[nH]c4)sc13)CCCC2(O)C(F)F` (single isomer, unassigned) [Compound 37], the IC50 was no more than 1 nM in assay [1] and 5 to 20 nM in assay [2].

Take `CC(C)(C)[C@@]1(O)COCc2c1[nH]c(=O)c1sc(-c3cn[nH]c3)cc21` (single isomer, unassigned) [Compound 20]: the IC50 in assay [1] is no more than 1 nM; in assay [2], no more than 5 nM.

`CCC1(O)COCc2c1[nH]c(=O)c1sc(-c3cn[nH]c3)cc21` (single isomer, unassigned) [Compound 18]: the results for the IC50 in assay [1] and in assay [2] were no more than 1 nM and 5 to 20 nM, respectively.

In the case of `Cc1cnccc1-c1cc2c3c([nH]c(=O)c2s1)C(O)(C(C)(C)C)COC3` (single isomer, unassigned) [Compound 69], the IC50 in assay [1] was no more than 1 nM; in assay [2], 5 to 20 nM.

Take `CC(C)C1(O)COCc2c1[nH]c(=O)c1sc(-c3ccncc3)cc21` (single isomer, unassigned) [Compound 44]: the IC50 is no more than 1 nM in assay [1] and 5 to 20 nM in assay [2].

As to `Cc1n[nH]cc1-c1cc2c3c([nH]c(=O)c2s1)C(O)(C(C)(C)C)COC3` (single isomer, unassigned) [Compound 91], the IC50 is greater than 10 nM in assay [1] and no more than 5 nM in assay [2].

On to `O=c1[nH]c2c(c3cc(-c4cn[nH]c4)sc13)C1CCC2(O)CC1` [Compound 8, 6-hydroxy-2-(1H-pyrazol-4-yl)-6,7,8,9-tetrahydro-6,9-ethanothieno[2,3-c]quinolin-4(5H)-one], for which the IC50 is no more than 1 nM in assay [1] and 20 to 50 nM in assay [2].

Turning to `CC(C)(C)[C@@]1(O)COCc2c1[nH]c(=O)c1sc(-c3ccncc3)cc21` (single isomer, unassigned) [Compound 22], the values for the IC50 in assay [1] and in assay [2] were no more than 1 nM and no more than 5 nM, respectively.

Regarding `Cc1n[nH]cc1-c1cc2c3c([nH]c(=O)c2s1)C(O)(C(F)(F)F)COC3` (single isomer, unassigned) [Compound 32], the IC50 in assay [1] is no more than 1 nM; in assay [2], 5 to 20 nM.

As to `CC(C)C1(O)COCc2c1[nH]c(=O)c1sc(-c3ccns3)cc21` (single isomer, unassigned) [Compound 46], the IC50 in assay [1] is no more than 1 nM; in assay [2], 5 to 20 nM.

For `CC(C)(C)C1(O)COCc2c1[nH]c(=O)c1sc(-c3ccncc3F)cc21` (single isomer, unassigned) [Compound 59], the half-inhibitory concentration (IC50) in assay [1] is no more than 1 nM; in assay [2], no more than 5 nM.

In assay [1], `O=c1[nH]c2c(c3cc(-c4cn[nH]c4)sc13)CC(F)(F)C[C@H]2N1CCC1` (single isomer, unassigned) [Compound 12] displayed an IC50 of 1 to 10 nM.

With `O=c1[nH]c2c(c3cc(-c4cn[nH]c4)sc13)CCCC2(O)C(F)F` (single isomer, unassigned) [Compound 36], the IC50 in assay [1] was greater than 10 nM.

As for `CC1(O)CCCc2c1[nH]c(=O)c1sc(-c3cn[nH]c3)cc21` (single isomer, unassigned) [Compound 41], the values for the IC50 in assay [1] and in assay [2] were 1 to 10 nM and greater than 50 nM, respectively.

With `CCC(C)C1(O)COCc2c1[nH]c(=O)c1sc(-c3cn[nH]c3)cc21` (single isomer, unassigned) [Compound 74], the IC50 in assay [1] was greater than 10 nM.

The molecule `Cc1n[nH]cc1-c1cc2c3c([nH]c(=O)c2s1)C(O)(C(C)C)COC3` (single isomer, unassigned) [Compound 25] registered an IC50 in assay [1] of 1 to 10 nM.

In turn, `CC(C)(O)C1(C)OCCc2c1[nH]c(=O)c1sc(-c3cn[nH]c3)cc21` (single isomer, unassigned) [Compound 56] returned an IC50 in assay [1] greater than 10 nM.

As to `CC(C)C1(O)COCc2c1[nH]c(=O)c1sc(-c3ccns3)cc21` (single isomer, unassigned) [Compound 47], the IC50 in assay [1] is greater than 10 nM.

`O=c1[nH]c2c(c3cc(-c4cn[nH]c4)sc13)COCC2(O)C1CCCC1` (single isomer, unassigned) [Compound 78] returned an IC50 in assay [1] of no more than 1 nM.

For the molecule `COC1(C)CC(F)(F)Cc2c1[nH]c(=O)c1sc(-c3cn[nH]c3)cc21` (single isomer, unassigned) [Compound 53], in assay [1], the IC50 is no more than 1 nM.

For the molecule `Cc1cc(-c2cc3c4c([nH]c(=O)c3s2)C(O)(C(C)(C)C)COC4)ccn1` (single isomer, unassigned) [Compound 61], the IC50 in assay [1] is no more than 1 nM.

The molecule `O=c1[nH]c2c(c3cc(-c4cn[nH]c4)sc13)COCC2(O)C(F)(F)F` (single isomer, unassigned) [Compound 29] registered an IC50 in assay [1] of 1 to 10 nM.

As for `CC(C)C1(O)COCc2c1[nH]c(=O)c1sc(-c3cn[nH]c3)cc21` (single isomer, unassigned) [Compound 16], the IC50 in assay [1] is no more than 1 nM; in assay [2] it was no more than 5 nM.

As for `COC1(C)CCCc2[nH]c(=O)c3sc(-c4cn[nH]c4)cc3c21` (single isomer, unassigned) [Compound 38], the IC50 in assay [1] was in the range of 1 to 10 nM.

Turning to `CC(C)C1(O)COCc2c1[nH]c(=O)c1sc(-c3c[nH]nc3F)cc21` (single isomer, unassigned) [Compound 26], the IC50 in assay [1] was 1 to 10 nM.

Take `CC1(C)COCc2c1[nH]c(=O)c1sc(-c3cn[nH]c3)cc21` [Compound 58, 4,4-dimethyl-8-(1H-pyrazol-4-yl)-1,3,4,5-tetrahydro-6H-pyrano[4,3-b]thieno[3,2-d]pyridin-6-one]: the IC50 is 1 to 10 nM in assay [1] and greater than 50 nM in assay [2].

In turn, `CC1(N2CCCC2)COCc2c1[nH]c(=O)c1sc(-c3cn[nH]c3)cc21` (centres unmarked) [Compound 71, 4-methyl-8-(1H-pyrazol-4-yl)-4-(pyrrolidin-1-yl)-1,3,4,5-tetrahydro-6H-pyrano[4,3-b]thieno[3,2-d]pyridin-6-one] had an IC50 in assay [1] greater than 10 nM.

With `O=c1[nH]c2c(c3cc(-c4cn[nH]c4)sc13)CCC[C@@H]2N1CCC(F)(F)C1` (single isomer, unassigned) [Compound 6], the IC50 in assay [1] is greater than 10 nM.

The molecule `O=c1[nH]c2c(c3c(F)c(-c4cn[nH]c4)sc13)CC(F)(F)CC2` [Compound 2, 1,8,8-trifluoro-2-(1H-pyrazol-4-yl)-5,6,7,9-tetrahydrothieno[2,3-c]quinolin-4-one] had an IC50 in assay [1] of no more than 1 nM.

`Cn1nccc1-c1cc2c3c([nH]c(=O)c2s1)C(O)(C(F)(F)F)COC3` (single isomer, unassigned) [Compound 31] came in with an IC50 in assay [1] of 1 to 10 nM.

With `CO[C@@H]1COCc2c1[nH]c(=O)c1sc(-c3cn[nH]c3)cc21` (single isomer, unassigned) [Compound 11], the IC50 in assay [1] was greater than 10 nM.

In assay [1], `C[C@]1(CO)CC(F)(F)Cc2c1[nH]c(=O)c1sc(-c3cn[nH]c3)cc21` (single isomer, unassigned) [Compound 14] yielded an IC50 of 1 to 10 nM.

As to `CC(C)(C)C1(O)COCc2c1[nH]c(=O)c1sc(-c3c[nH]nc3F)cc21` (single isomer, unassigned) [Compound 66], the IC50 in assay [1] is no more than 1 nM.

In assay [1], `CC#CC1(O)COCc2c1[nH]c(=O)c1sc(-c3cn[nH]c3)cc21` (single isomer, unassigned) [Compound 73] displayed an IC50 greater than 10 nM.

`Cc1cnccc1-c1cc2c3c([nH]c(=O)c2s1)C(O)(C(C)(C)C)COC3` (single isomer, unassigned) [Compound 70] had an IC50 in assay [1] greater than 10 nM.

On to `CC(C)(C)C1(O)COCc2c1[nH]c(=O)c1sc(-c3ncncc3Cl)cc21` (single isomer, unassigned) [Compound 63], for which, in assay [1], the IC50 was no more than 1 nM.
